This note sets out measurements from publication PMC10002984, “Dual PTP1B/TC-PTP Inhibitors: Biological Evaluation of 3-(Hydroxymethyl)cinnoline-4(1H)-Ones” (International Journal of Molecular Sciences, 2023).

In assay [1] the target is T1, recombinant human PTP1B protein (Homo sapiens, UniProt P18031).
T1 construct: purchased Abcam ab51277
T1 sequence (P18031 1-321 limits assumed): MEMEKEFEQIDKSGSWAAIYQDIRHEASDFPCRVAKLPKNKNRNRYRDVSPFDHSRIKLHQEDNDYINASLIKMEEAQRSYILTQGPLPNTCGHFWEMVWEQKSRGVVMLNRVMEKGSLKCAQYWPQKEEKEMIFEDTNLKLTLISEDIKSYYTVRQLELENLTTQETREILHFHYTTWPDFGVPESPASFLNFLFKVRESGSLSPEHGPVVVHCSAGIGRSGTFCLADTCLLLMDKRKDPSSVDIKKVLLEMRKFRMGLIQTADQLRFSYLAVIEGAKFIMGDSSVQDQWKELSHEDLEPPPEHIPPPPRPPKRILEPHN
Put plainly: Phosphatase activity assay with DiFMUP, PTP1B inhibition. The assay is classed as biochemical. The following applies: for IC50: DiFMUP 25 µM, 80 ng/mL PTP1B, compounds 0.1–80 μM, M ± SEM (n = 24), read-out: IC50 for the inhibitory effect on PTP1B activity. Here is the method:
The measurement of the activity of the phosphatases PTP1B and TC-PTP and their inhibition was carried out using 6,8-difluoro-4methylumbelliferyl phosphate (DiFMUP), as previously described. The stock solution of recombinant human PTP1B protein (#ab51277, Abcam, Cambridge, UK), at a concentration of 1 µg/µL, was prepared in 25 mM Tris–HCl (pH 7.5), 20% glycerol, 2 mM β-mercaptoethanol, 1 mm EDTA, and 1 mM DTT, and stored at −20 °C. Active human recombinant TC-PTP protein was purchased from Sigma-Aldrich (#SRP0218, Saint Louis, MO, USA) as the aqueous buffer solution at a concentration of 2.9 mg/mL, and aliquots were stored at −80 °C. The fluorogenic substrate DiFMUP (#D6567, Molecular Probes, Thermo Fisher Scientific, Waltham, MA, USA) was dissolved at a concentration of 10 mM in N,N-dimethylformamide and stored in aliquots at −20 °C. The 6,8-difluoro-7-hydroxy-4-methylcoumarin (DiFMU, #D6566, Molecular Probes, Thermo Fisher Scientific, Waltham, MA, USA) was used as a reference fluorescent standard. For the IC50 determination, the assay was carried out in black flat bottom 96-well plates using a reaction volume of 100 µL. The phosphatases (PTP1B or TC-PTP) were preincubated with the tested compounds (0.1–80 µM) in 50 mM HEPES (pH 6.9), 100 mM NaCl, 1 mM EDTA, 2 mM DTT, 0.1 mg/mL BSA for 5 min at 37 °C. The following concentrations of the compounds were studied: 0.1, 0.2, 0.5, 1, 2, 5, 10, 20, 40, and 80 μM. The reactions were initiated by the addition of the fluorogenic substrate DiFMUP and diluted in the assay buffer. Progress curves for hydrolysis reaction were obtained with 25 µM of DiFMUP for 80 ng/mL PTP1B, and 35 µM of DiFMUP for 80 ng/mL TC-PTP. Fluorescence excitation of hydrolyzed DiFMUP and the fluorescent standard DiFMU was monitored at 355 nm and emission was detected at 460 nm for 6–10 min at 30 s intervals in a Fluoroskan Ascent FL microplate reader (Thermo Electron Corporation, Vantaa, Finland). Initial velocities of the reactions were used to calculate the IC50 values using GraphPad Prism.
The data on food intake, body weight, and biochemical parameters in rats, as well as the PCR data, were analyzed using the IBM SPSS Statistics 22 software (“IBM”, Armonk, NY, USA), and the results are presented as mean ± standard error of the mean (M ± SEM). All differences are considered significant at p < 0.05. The calculation of the IC50 values of the studied inhibitors for the initial velocities of enzymatic reactions (PTP1B, TC-PTP) was carried out using the nonlinear regression analysis with GraphPad Prism 8 (“GraphPad Software, Inc.”, Boston, MA, USA). The statistical analysis was carried out using the Wilcoxon test for pairwise comparison and Dunn’s test for multiple comparisons.

A further assay has as its system Shp1 gene. Put plainly: Gene expression in the liver of obese rats (qPCR), Shp1 gene. The assay is classed as in vivo, rat. The following applies: five-day treatment. The procedure: Further, six groups were formed: control (Con, n = 10), obesity (Ob, n = 10), obese rats with five-day treatment with compounds 1 (Ob + 1, n = 5), 2 (Ob + 2, n = 5), 3 (Ob + 3, n = 10), and 4 (Ob + 4, n = 10). All compounds were administered in DMSO (300 µL) at a daily dose of 7 mg/kg (1 and 2), 8 mg/kg (3), and 10 mg/kg (4) (i.p.), based on the results of the preliminary experiments. The used doses of compounds 1–4, in terms of the number of moles of each compound per kg of animal body weight, were equivalent. Control and obese rats received DMSO in the same volumes (300 µL), instead of the tested compounds. During the five days of the experiment, all animals were transferred to standard food and had free access to food and drinking water. […] The test was carried out on the morning of the next day after the last (fifth) injection of the compounds or DMSO, after a 10 h fast. The rest of the animals (n = 5 in each group) were anesthetized and decapitated on the last day of the experiment. The blood and liver samples were taken to measure blood glucose and hormone levels and gene expression in the liver.
The total RNA was isolated from the liver samples of rats using the “ExtractRNA Reagent” (Evrogen, Moscow, Russia), and the samples containing 1 μg of RNA were transcribed to cDNA using the random oligodeoxynucleotide primers and the “MMLV RT kit” (Evrogen, Russia). The amplification procedure was carried out in the mixture containing 10 ng of reverse transcribed product, 0.4 μM of the forward and reverse primers, and the “qPCRmix-HS SYBR + LowROX kit” (Evrogen, Russia). The amplified signals were detected using the “Applied Biosystems® 7500 Real-Time PCR System” (Life Technologies, Carlsbad, CA, USA, Thermo Fisher Scientific Inc., USA). The primers that were used to assess the expression of genes encoding the phosphatase PTP1B, TC-PTP, and SHP1 and the insulin and leptin receptors are presented in Table 4. The obtained data were calculated with the delta–delta Ct method and expressed as a fold expression, relative to the corresponding control. The expression of the gene encoding 18S RNA was used as an endogenous control.
In general terms: In qPCR the cycle at which signal appears reflects the starting amount.

Usually IC50 stands for the point on the concentration scale where inhibition reaches its midpoint. For the molecule `O=c1c(CO)n[nH]c2ccccc12` [Compound 1], the IC50 in assay [1] was 3.78 ± 0.34 µM. Also, in assay [1] (from IC50 values of Table 1), the “selectivity for PTP1B compared to that for TC-PTP” value was 5–7 fold. Moreover, in the assay on Shp1 gene, the “expression of the Shp1 gene in the liver” value is “increased”.
Take `O=c1c(CO)n[nH]c2ccc(Cl)cc12` [Compound 3, 6-Chloro-3-(hydroxymethyl)cinnolin-4(1H)-one]: in assay [1], the IC50 was found to be 5.11 ± 0.57 µM. Further, the “expression of the Shp1 gene in the liver” value in the assay on Shp1 gene is “did not affect”.
The matching figures for `O=c1c(CO)n[nH]c2ccc(Br)cc12` [Compound 4, 6-Bromo-3-(hydroxymethyl)cinnolin-4(1H)-one]: 11 ± 1.34 µM and “did not affect”.
